Data reported in patent publication US8071613B2, “Anti-constipation composition” (Sucampo AG, priority 2000, dated 2011).

How the values were obtained:
intraintestinal content = assay: Enteropooling test; type: in vivo; conditions: dose that raises the intraintestinal content by 50%
Excerpt: The enteropooling test employed in the present invention is intended to investigate mainly on the action (ii) and/or (iii), which assesses the effect of the drug on the intraintestinal water pool by measuring the volume of the intraintestinal content. The bi-cyclic-halogenated compounds of the present invention may show extremely great enteropooling effect. However, they hardly or slightly cause contraction of intestines which is one of indexes for assessment of the action (iv). Accordingly, the bi-cyclic-halogenated compounds of the present invention are considered to alleviate constipation by mainly acting on intestinal mucosa directly or indirectly to affect transfer of electrolytes and water from intestinal walls into blood vessels and/or from blood vessels into intestines, resulting in reduced water absorption and/or in increased water secretion through the intestines, increased intraintestinal water pool and promoted transfer of the intraintestinal content. Enteropooling tests and diarrhea tests were conducted. The dose that raise the intraintestinal content by 50% was referred to as ED50. [drawing 31] […]

[1] = Ratio of mono-cyclic/bi-cyclic structure by NMR measurement; type: physicochemical; conditions: NMR measurement in CDCl3 solution
Excerpt: It has been discovered that in the absence of water, compounds represented by Formula (I) exist predominantly in the form of the bi-cyclic compound. In aqueous media, it is believed that hydrogen bonding occurs between, for example, the ketone position at the C-15 position, thereby hindering bi-cyclic ring formation. In addition, it is believed that the halogen atom(s) at the C-16 position promote bi-cyclic ring formation. The mono-cyclic/bi-cyclic structures, for example, may be present in a ratio of 1:6 in D2O; 1:10 in CD3OD-D2O and 4:96 in CDCl3. Accordingly, a preferable embodiment of the present invention is the composition in which the bi-cyclic form is present in ratio of bi -cyclic/mono-cyclic of least 1:1, and preferably 20:1, or even greater to substantially all bi-cyclic compound; 100% bi-cyclic compound is within this invention.
The biological activity of compositions due to the ratios of mono-cyclic/bi-cyclic structures when Z of general formula (I) is an oxygen atom, and a ketone is present at the C-9 position of the present invention can be seen from the following examples.

[2] = Storage stability at 40° C. without solvent (crystal), content by HPLC; type: physicochemical; conditions: crystal (no solvent); for content of compound, initial: hard glass container, 40° C.
Description: (§1) Each of the solutions was placed in a container made of hard glass and stored at 40° C. The time-course content of compound 1 and 2 in the solutions were determined by HPLC method. At the same time, each of compounds 1 and 2 was placed solely (without being dissolved in the solvent) in the container as above, and stored at 40° C. to provide control study.
(1) In the absence of the solvent, the content of the compounds was determined as follows by the HPLC method.
Stored compounds 1 and 2, and standard compounds 1 and 2 were weighed precisely around 0.025 g each, and exactly 5 mL aliquots of internal standard solution were added to the respectively weighed compounds. Test and standard preparations were obtained by adding acetonitrile (liquid chromatograph grade) to give the precise total amount of 10 mL each. Each 10 μL of the test and standard preparations were loaded on liquid chromatograph and determined the content of the compound by internal standard method with one point calibration curve.
(§2) WX: The amount of the compound in the standard preparation (mg)
WT: The amount of compound 1 and 2 in the test preparation.
(§3) QS: Peak area ratio of the compound in the standard preparation to the internal standard.
(§4) QT: Peak area ratio of the compound in the test preparation to the internal standard.
Detector: Ultraviolet absorption spectrophotometer (wavelength 294 nm)
(§5) Column: A stainless tube having about 5 mm of internal diameter and about 25 cm of length, packed with 5 μm octadecylsilyl silica gel for liquid chromatograph
Column temperature: Stable around 35° C.
Mobile phase: Mixed solution of acetonitrile (liquid chromatograph grade)/aqueous sodium acetate (0.01 mol/L)/glacial acetic acid (800:200:1)

[3] = Storage stability at 40° C. dissolved in medium chain fatty acid triglyceride (MCT), content by HPLC; type: physicochemical; conditions: for content of compound, initial / content of compound, 14 days: in MCT (compound 1 0.36 mg/g; compound 2 0.12 mg/g); for content of compound, initial: 40° C.; for content of compound, 14 days: in % (unit assumed)
Description: The following compounds 1 and 2 were dissolved in a medium chain fatty acid triglyceride (MCT=mixture of caprylic acid triglyceride and capric acid triglyceride in a ratio of 85:15) in an amount shown in the table below.
as §1
(2) In the presence of the solvent, the content of the compound was determined as follows by HPLC method.
Based on the value expressed in the above table, an amount of the solution corresponding to 36 μg of compounds 1 and 2 was weighed precisely. Precisely 1.0 mL of an internal standard solution was added, and then ethyl acetate, (liquid chromatograph grade) was added to give a total amount of 10 mL each. Each 0.1 mL of the solution was vacuum concentrated to dryness to give the test preparation.
Each 18 mg of the standard compounds was weighed precisely and admixed with ethyl acetate (liquid chromatograph grade) to give the total amount of exactly 50 mL each. 1.0 mL of the solution and 10.0 mL of the internal standard solution were measured precisely and admixed with ethyl acetate (liquid chromatograph grade) to give a total of 100 mL each. Each 0.1 mL of the solution was vacuum concentrated to dryness to give the standard preparation.
To the test and standard preparations, 0.1 mL of fluorescent labeling reagent and 0.85 mL of fluorescent labeling catalyst were added, respectively, and the mixture was stirred and reacted at room temperature for more than 30 minutes. 0.05 mL aliquots of acetonitrile (liquid chromatograph grade) containing 2% acetic acid were added to the reaction mixtures, respectively, stirred, and then allowed to stand for more than 30 minutes to provide test and standard solutions.
Each 10 μL of the test and standard solution was loaded on liquid chromatograph and determined the content of the respective compounds by internal standard method with one point calibration curve.
as §2, §3, §4
Detector: Fluorescent spectrometer (excitation wavelength 259 nm; fluorescent wavelength 394 nm)
as §5
Column temperature: Stable at around 35° C.
Mobile phase: Mixed solution of acetonitrile (liquid chromatograph grade)/methanol (liquid chromatograph grade)/aqueous ammonium acetate (0.05 mol/L) (4:11:5)

healthy male volunteers = assay: Bowel movement after single oral administration to healthy male volunteers; type: in vivo, human
Description: Effect of the Present Invention Dissolved in Medium Chain Fatty Acid Triglyceride on Bowel Movement After Single Oral Administration to Healthy Male Volunteers
3 to 9 healthy male volunteers were treated with a composition containing the following mono-cyclic/bi-cyclic structures (in CDCl3) in a ratio of 4:96.
The test substance (R1 and R2 are F atoms) was dissolved in Panacet 800 (medium chain fatty acid triglyceride manufactured by Nippon Oil & Fat co., Ltd., Amagasaki, Japan) and filled in a capsule (each capsule contains […] of the mixture). Each subject was administered one capsule with 100 mL of water.

[4] = 5 μg single oral capsule in Panacet 800
[5] = 10 μg single oral capsule in Panacet 800
[6] = 20 μg single oral capsule in Panacet 800
[7] = 30 μg single oral capsule in Panacet 800

For CCCCC(F)C(=O)CCC1C(O)CC(=O)C1CC=CCCCC(=O)OC (stereo not shown) [Example D], the “Enteropooling activity, ED50” value (intraintestinal content) was 3 µg/kg.
In the case of CCCCCC(=O)CCC1C(O)CC(=O)C1CCCCCCC(=O)O (stereo not shown) [Comparative Example A, reference compound], the “Ratio of mono-cyclic/bi-cyclic structure” value [1] is reported as “No signal” and the “Enteropooling activity, ED50” value (intraintestinal content) is reported as 320 µg/kg.
For CC[C@H](C)CC(F)(F)C1(O)CC[C@@H]2C(CCCCCCC(=O)O)C(=O)C[C@H]2O1 (stereo partly shown) [compound 2], the content of compound, initial [2] was 100%, the content of compound, 6 days ([2]; stored at 40° C., 6 days) was 84.5% and the content of compound, 14 days ([2]; stored at 40° C.) was 75%. The content of compound, 28 days ([2]; stored at 40° C.) was 53.4%, the content of compound, initial [3] was 100% and the “content of compound, 14 days” value ([3]; stored at 40° C.) was 99.6. The content of compound, 28 days ([3]; in MCT (compound 2 0.12 mg/g), stored at 40° C., 28 days) was 98.9% and the content of compound, 191 days ([3]; in MCT (compound 2 0.12 mg/g), stored at 40° C., 191 days) was 99.6%.
With CCCCC(F)(F)C1(O)CCC2C(CC(=O)C2CC=CCCCC(=O)OC)O1 (stereo not shown) [Example C] the “Enteropooling activity, ED50” value (intraintestinal content) was 0.3 µg/kg.
In the case of CCCCC(F)(F)C1(O)CC[C@@H]2C(CCCCCCC(=O)O)C(=O)C[C@H]2O1 (stereo partly shown) [compound 1], the content of compound, initial [2] is reported as 100%, the “content of compound, 7 days” value ([2]; stored at 40° C., 7 days) is reported as 97.2 and the content of compound, 14 days ([2]; stored at 40° C.) is reported as 94.1%. The content of compound, 28 days ([2]; stored at 40° C.) was 87.4%, the “content of compound, 38 days” value ([3]; in MCT (compound 1 0.36 mg/g), stored at 40° C., 38 days) was 102.1 and the “content of compound, 90 days” value ([3]; in MCT (compound 1 0.36 mg/g), stored at 40° C., 90 days) was 100.9. The content of compound, initial [3] was 100% and the “content of compound, 14 days” value ([3]; stored at 40° C.) was 101.4.
In the case of CCCCC(F)C(=O)CCC1C(O)CC(=O)C1CCCCCCC(=O)O (stereo not shown) [Example B], the “Enteropooling activity, ED50” value (intraintestinal content) is reported as 2 µg/kg.
In the case of CCCCCC(=O)CCC1C(O)CC(=O)C1CC=CCCCC(=O)OC (stereo not shown) [Comparative Example C, reference compound], the “Enteropooling activity, ED50” value (intraintestinal content) is reported as 220 µg/kg.
For CCCCC(F)(F)C1(O)CCC2C(CC(=O)C2CCCCCCC(=O)O)O1 (stereo not shown) [test substance], the “Number of Subjects Loose or Diarrhea” value (healthy male volunteers; [4]) was 2/3, the “Number of Subjects Normal” value (healthy male volunteers; [4]) was 1/3 and the “Number of Subjects Loose or Diarrhea” value (healthy male volunteers; [5]) was 2/7. The “Number of Subjects Normal” value (healthy male volunteers; [5]) was 5/7, the “Number of Subjects Loose or Diarrhea” value (healthy male volunteers; [6]) was 2/3 and the “Number of Subjects Normal” value (healthy male volunteers; [6]) was 1/3. The “Number of Subjects Loose or Diarrhea” value (healthy male volunteers; [7]) was 7/9 and the “Number of Subjects Normal” value (healthy male volunteers; [7]) was 2/9.
With CCCCC(F)(F)C1(O)CCC2C(CC(=O)C2CCCCCCC(=O)O)O1 (stereo not shown) [Example A] the “Enteropooling activity, ED50” value (intraintestinal content) was 0.6 µg/kg.
